{
  "source": "patent US8258182B2",
  "about": "“Substituted 1,3-diphenylpropane derivatives, preparations and uses thereof” (Genfit, priority 2006, dated 2012)",
  "key": {"ApoE2/E2 mice": {"test_system": "ApoE2/E2 mice", "assay": "Plasma lipids in dyslipidemic ApoE2/E2 mice after per os treatment", "type": "in vivo, mouse", "details": "50 mpk per os, 8 days", "method": "The dyslipidemic E2/E2 mouse's rates of total cholesterol, of triglycerides, and plasma free fatty acids are measured after 8 or 14 days of a per os treatment with the compounds according to the invention.\nThe hypolipidemic properties of the compounds according to the invention are evaluated in vivo by assaying plasma lipids and the analysis of the PPARs target genes expression in the liver after a treatment treating of the dyslipidemic E2/E2 mice with the compounds according to the invention.\nThe murine model used is the ApoE2/E2 mouse, a transgenic mouse having the human apolipoprotein E isoform E2 (Sullivan P M et al., 1998). In human, this apolipoprotein, a constituent of low and very low density lipoproteins (LDL-VLDL), is present in three isoforms E2, E3, and E4. The E2 form presents a mutation affecting the amino acid in position 158, which considerably weakens the affinity of this protein for LDL receptors. Accordingly, the VLDL clearance is nearly non-existent. An accumulation of low-density lipoproteins then occurs along with a mixed hyperlipidemia known as type III (elevated cholesterol and triglycerides).\nThe ApoE2/E2 transgenic mice were kept on a 12 hour/12 hour light/dark cycle at a constant temperature of 20±3° C. After a one week acclimatization period, the mice were weighed and divided into groups of 6 animals selected so as to render uniform the distribution of their body weights and plasma lipid rates, determined before the experiment. The tested compounds were suspended in carboxymethylcellulose (Sigma C4888) and administered by intra-gastric tube feeding once a day for 8 days (for compound 1) or 14 days (for compound 8) with the chosen doses. […] Taking of food and weight gain are recorded throughout the experiment. […]\nPlasma lipid concentrations (total cholesterol and triglycerides) are measured by enzymatic doses (bioMérieux-Lyon-France) according to the provider's recommendations.\nPlasma cholesterol and triglycerides rates are measured after 8 or 14 days of a per os treatment with the compounds according to the invention. […]"}, "[1]": {"test_system": "PPARs target genes (PDK4, ApoCIII, ACO) in the hepatic tissue", "assay": "Hepatic expression of PPAR target genes in E2/E2 mice (quantitative RT-PCR)", "type": "in vivo, mouse", "details": "50 mpk", "method": "The effectiveness of the compounds according to the invention is also evaluated by measuring, in the hepatic tissue, the expression of genes involved in lipid and/or glucids metabolism and in energy dissipation. Each level of genes expression is normalised regarding the expression level of the reference gene 36B4's. The induction factor, i.e. the ratio between the relative signal (induced by the compound according to the invention) and the average of the relative values relating to the control group is then calculated. The higher the induction factor is, the more the compound promotes hepatic gene expression. The final result is expressed as an average of the induction values obtained with each experimental group.\nThe PPARα agonist properties previously measured in vitro should, in the liver, lead to an overexpression of the target genes directly under the control of the PPARα: the genes we have studied in this experiment are PDK-4 (an enzyme involved in glucid metabolism), Apo CIII (an apolipoprotein involved in lipid metabolism), and Acox1 (in mice, Acox1 corresponds to the ACO gene in humans (Acyl Co-enzymeA Oxydase, an enzyme key to the fatty acid β-oxidation mechanism)). Measuring the transcriptional activity of PPARα target genes after a treatment with compounds according to the invention does therefore allow to evaluate the hypolipidemic properties of the compounds according to the invention.\nThe ApoE2/E2 transgenic mice were kept on a 12 hour/12 hour light/dark cycle at a constant temperature of 20±3° C. After a one week acclimatization period, the mice were weighed and divided into groups of 6 animals selected so as to render uniform the distribution of their body weights and plasma lipid rates, determined before the experiment. The tested compounds were suspended in carboxymethylcellulose (Sigma C4888) and administered by intra-gastric tube feeding once a day for 8 days (for compound 1) or 14 days (for compound 8) with the chosen doses. The animals had free access to food and water (standard diet). Taking of food and weight gain are recorded throughout the experiment. At the end of the experiment, the animals were anesthetized after a 4 hour fast, and a blood sample was taken using (EDTA) anticoagulant, then the mice were weighed and euthanized. The plasma was separated by centrifugation at 3000 rotations/minute for 20 minutes. The samples were kept at +4° C.\nLiver samples were removed, frozen in liquid nitrogen, and kept at −80° C. for later analyses.\nTotal RNA is extracted from liver fragments by using the NucleoSpin® 96 RNA kit (Macherey Nagel, Hoerdt, France) according to the manufacturer's instructions.\n1 μg of total RNA (quantified by using the Ribogreen RNA quantification kit (Molecular Probes)) is then reverse-transcripted into complementary DNA by means of a 1 hour reaction at 37° C. in a total volume of 20 μl containing a 1× buffer (Sigma), 1.5 mM of DTT, 0.18 mM of dNTPs (Promega), 200 ng of pdN6 (Amersham), 30U of RNase inhibitor (Sigma), and 1 μl of MMLV-RT (Sigma).\nThe PCR quantitative experiments were carried out using the MyiQ Single-Color Real-Time PCR Detection System (Biorad, Marnes-la-Coquette, France) and were performed using the iQ SYBR Green Supermix kit according to the manufacturer's recommendations, in 96-well trays in 5 μl of a diluted reverse transcription solution at a hybridation temperature of 55° C. The specific primer pairs of the genes studied were used: • PDK4: sense primer: 5′-[…]-3′ (SEQ ID NO: 1) and antisense primer 5′-[…]-3′ (SEQ ID NO: 2)) • ApoCIII: sense primer: 5′-[…]-3′ (SEQ ID NO: 3) and antisense primer 5′-[…]-3′ (SEQ ID NO: 4). • ACO: sense primer: 5′-[…]-3′ (SEQ ID NO: 5) and antisense primer: 5′-[…]-3′ (SEQ ID NO: 6)\nThe quantity of fluorescencet emitted is directly proportional to the quantity of cDNA present at the beginning of the reaction and amplified during the PCR. […]"}},
  "data": [
    {"compound": "CSc1ccc(C(=O)CCc2cc(C)c(OC(C)(C)C(=O)O)c(C)c2)cc1", "note": "[Compound 1, 2-[2,6-dimethyl-4-[3-[4-(methylthio)phenyl]-3-oxo-propyl]phenoxyl]-2-methylpropanoic acid]", "values": [
      {"measurement": "plasma total cholesterol rates", "setting": "ApoE2/E2 mice; vs control animals (FIG. 2-1)", "result": "very significantly decreased"},
      {"measurement": "circulating triglycerides rates", "setting": "ApoE2/E2 mice; vs control animals (FIG. 2-2)", "result": "very significantly decreased"},
      {"measurement": "hepatic expression of the gene coding for PDK4", "setting": "[1]; 8 days (FIG. 2-4)", "result": "significant increase"},
      {"measurement": "hepatic expression of the gene coding for ApoCIII", "setting": "[1]; 8 days (FIG. 2-5)", "result": "reduction"},
      {"measurement": "hepatic expression of genes coding for ACO", "setting": "[1]; 8 days (FIG. 2-6)", "result": "significant augmentation"}
    ]}
  ]
}
